Read-outs that look alike come from different tables or passages of the source.

The source of these data is patent US11780851B2, “LRRK2 inhibitors” (H. Lundbeck A/S, priority 2021, dated 2023).

One data set addresses T1, LRRK2 G2019S (Homo sapiens, UniProt Q5S007, G2019S).
T1 construct: purchased Invitrogen (Life Technologies Corporation)
The data set can be described thus: LRRK2 G2019S kinase activity assay (LanthaScreen TR-FRET). The class given is biochemical. The settings on record: 250 pM LRRK2 G2019S, 1.3 mM ATP, 3 h at 30° C.; n≥2 tests. Put shortly: (§1)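 TR-FRET measured phosphorylation of fluorescein-ERM LRRKtide by human LRRK2 residues 970–2527, wild-type or G2019S, detected with a terbium anti-phospho-LRRKtide antibody. The 520/495 nm ratio was normalized to uninhibited and inhibitor controls. IC50 came from a Hill fit, log-averaged over independent experiments.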
(In TR-FRET formats the signal depends on donor and acceptor labels being close together.)

For the next data set, the target named is T2, LRRK2 WT (Homo sapiens, UniProt Q5S007).
T2 construct: comprises residue 970 to 2527 of the full length human wild-type LRRK2 kinase; purchased Invitrogen (Life Technologies Corporation)
In words: LRRK2 wild-type kinase activity assay (LanthaScreen TR-FRET). The settings on record: 1 nM LRRK2 WT, 1.3 mM ATP, 3.5 h at 30° C.; n≥2 tests. The class given is biochemical. The gist of the method:
as §1

The subject of data set [1] is pooled donor, cryopreserved hepatocytes. The data set can be described thus: Hepatocyte intrinsic clearance assay. The settings on record: 0.1 μM, 2 h at 37° C., 1×10^6 hepatocytes/mL; * measured on 3 separate occasions, ** on a single occasion. The class given is in vitro ADME, human. The procedure:
Test compounds (final concentration 0.1 μM, 0.05% organic) were incubated for 2 h at 37° C., with shaking, in supplemented Leibovitz L-15 media (pH7.4) containing commercially sourced, pooled donor, cryopreserved hepatocytes (final concentration 1×10^6 hepatocytes/m L). The CLint reactions (350 μL) were initiated by addition of test compound. Aliquots (25 μL) were taken at 1, 5, 10, 15, 30, 60, 90 and 120 minutes and then protein crashed with ice-cold acetonitrile containing internal standard (150 μL) then centrifuged (1960 g for 20 minutes at 4° C.). Supernatant was diluted (1:4) with deionized water then analyzed by liquid chromatography (LC)-tandem mass spectrometry (MS/MS). The intrinsic clearances (CLint) were calculated from the slope (k) of the linear regressions of percentages of compound remaining in incubation against incubation time, according to equations 2 and 3.

Data set [2] in a line: Rat B/P (brain disposition). The class given is in vivo, male Sprague-Dawley rats. The settings on record: male, Sprague-Dawley; for concentration at 1 h / Kp uu at 1 h / Kp at 1 h: time point 1.0 h. Put shortly:
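Male Sprague-Dawley rats (n=3, standard body weight) were used to assess brain disposition. Plasma and brain homogenates underwent protein precipitation with acetonitrile containing internal standard, then LC-MS/MS measurement using an optimized method. Compound levels were quantified against matrix-matched calibration standards, and brain Kp was calculated as total brain concentration divided by total plasma concentration.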

Data set [3] is described as follows: Free fraction in plasma (equilibrium dialysis). The class given is in vitro ADME, male Sprague-Dawley rat. The settings on record: rat plasma, 1 μM, 5 h at 37° C. The gist of the method:
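Equilibrium dialysis (12-14 kDa membrane) of male Sprague-Dawley rat or female Gottingen minipig plasma, or rat brain homogenate diluted 1:4, against 100 mM sodium phosphate pH 7.4, compound at 1 μM nominal (≤0.5% DMSO), 5 h at 37 °C. LC/MS-MS quantification; percent free calculated, with dilution factor 4 for brain.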
A general note: Equilibrium dialysis compares concentrations on both sides of a semipermeable membrane.

The nature of another data set: GSH adduct screening. The class given is in vitro ADME, human. The settings on record: 1 μM, 3 h at 37° C., HLM 0.5 mg/mL, NADPH, with and without GSH. How it is done: Test compounds (final concentration 1 μM, 0.25% organic) were incubated for 3 h at 37° C. in commercially sourced, pooled donor, human liver microsomes (HLM, final concentration 0.5 mg/mL) with and without addition of glutathione (GSH; final concentration […]). The metabolic reaction was initiated by addition of microsomal solution to the mixture of cofactor NADPH (final concentration 1 mM), test compound and GSH. After 3 h of incubation in a water bath at 37° C., the reaction was stopped by addition of 0.2% formic acid in acetonitrile, followed by mixing and centrifugation (16000 g for 5 minutes). Supernatant was diluted (1:1) with HPLC water then analyzed by liquid chromatography (LC)-quadrupole time-of-flight mass spectrometry (QTOF-MS). Accurate mass MS and MS/MS spectra from samples with GSH and without GSH, respectively, were compared to identify detectable GSH and/or cysteine related adducts.

T1 sequence (Q5S007 970-2527 G2019S): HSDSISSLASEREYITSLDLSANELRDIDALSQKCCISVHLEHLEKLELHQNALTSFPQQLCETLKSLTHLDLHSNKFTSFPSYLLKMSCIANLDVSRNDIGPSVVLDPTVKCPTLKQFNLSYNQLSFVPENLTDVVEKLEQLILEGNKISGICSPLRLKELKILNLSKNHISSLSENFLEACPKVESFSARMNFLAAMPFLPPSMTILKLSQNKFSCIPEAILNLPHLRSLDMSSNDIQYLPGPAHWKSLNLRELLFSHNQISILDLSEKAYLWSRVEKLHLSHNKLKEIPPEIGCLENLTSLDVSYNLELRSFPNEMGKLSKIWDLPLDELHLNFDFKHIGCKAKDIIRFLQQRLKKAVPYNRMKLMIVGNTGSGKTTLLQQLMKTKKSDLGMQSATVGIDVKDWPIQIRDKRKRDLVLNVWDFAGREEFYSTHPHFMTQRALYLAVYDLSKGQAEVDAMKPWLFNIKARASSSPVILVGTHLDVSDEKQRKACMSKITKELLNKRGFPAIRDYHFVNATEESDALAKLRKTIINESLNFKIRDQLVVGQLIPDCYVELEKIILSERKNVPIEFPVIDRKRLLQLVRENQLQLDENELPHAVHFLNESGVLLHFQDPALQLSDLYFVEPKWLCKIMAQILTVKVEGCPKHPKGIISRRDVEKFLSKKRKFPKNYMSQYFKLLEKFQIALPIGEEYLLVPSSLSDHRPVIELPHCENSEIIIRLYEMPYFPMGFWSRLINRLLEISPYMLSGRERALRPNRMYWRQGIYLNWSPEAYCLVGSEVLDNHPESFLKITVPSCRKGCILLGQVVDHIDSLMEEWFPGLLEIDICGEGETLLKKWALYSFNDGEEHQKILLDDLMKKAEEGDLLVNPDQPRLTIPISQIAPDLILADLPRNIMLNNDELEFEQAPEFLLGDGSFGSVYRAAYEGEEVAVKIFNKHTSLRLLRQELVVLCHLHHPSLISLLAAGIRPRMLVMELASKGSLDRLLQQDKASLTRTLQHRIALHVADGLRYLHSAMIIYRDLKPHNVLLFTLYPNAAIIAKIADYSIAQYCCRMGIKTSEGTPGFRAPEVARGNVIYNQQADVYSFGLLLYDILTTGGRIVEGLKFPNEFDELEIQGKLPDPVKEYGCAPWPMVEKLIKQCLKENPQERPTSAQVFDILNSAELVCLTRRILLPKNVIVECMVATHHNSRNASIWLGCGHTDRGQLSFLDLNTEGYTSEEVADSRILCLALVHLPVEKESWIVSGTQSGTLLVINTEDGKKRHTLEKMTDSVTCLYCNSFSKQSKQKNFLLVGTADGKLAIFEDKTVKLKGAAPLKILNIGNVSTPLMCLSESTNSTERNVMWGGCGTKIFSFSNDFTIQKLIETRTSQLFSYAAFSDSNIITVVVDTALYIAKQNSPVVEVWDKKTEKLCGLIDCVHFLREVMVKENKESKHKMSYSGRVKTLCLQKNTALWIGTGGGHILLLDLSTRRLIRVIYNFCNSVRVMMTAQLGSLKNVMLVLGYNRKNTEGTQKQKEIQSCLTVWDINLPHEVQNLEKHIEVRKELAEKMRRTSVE
T2 sequence (Q5S007 970-2527): as the sequence (Q5S007 970-2527 G2019S) above, with S1050G counted along it

What is called IC50 is the concentration needed to halve the response being measured. As usually defined, the Kp is the ratio of the level in a tissue or fluid to that in plasma or blood. Take `Cc1c2c(nn1[C@H]1CCCOC1)OCCCn1nc(Cl)c3cnc(nc31)N2` (single isomer, unassigned) [Example 4, (R) or (S)-8-Chloro-3-methyl-2-(tetrahydro-2H-pyran-3-yl)-2,4,12,13-tetrahydro-11H-5,7-(azenometheno)dipyrazolo[3,4-b:5′,1′-g][1]oxa[4,6,8]triazacycloundecine]: the values for the IC50 at LRRK2 G2019S and at LRRK2 WT were 2.8 nM and 12 nM, respectively. Moreover, in data set [1], the “CLint” value worked out at 14.5 mL/min/kg. The concentration at 1 h in data set [2] (brain, oral gavage 10 mg/kg, mean ± stdev, n = 3, read-out: Total brain concentration) worked out at 1360 ± 186 ng/g; in data set [2] (plasma, oral gavage 10 mg/kg, mean ± stdev, n = 3, read-out: Total plasma concentration) it was 758 ± 145 ng/mL. The same compound registered a Kp uu at 1 h in data set [2] (brain/plasma, oral gavage 10 mg/kg, fubrain from brain homogenate) of 0.42 ± 0.07. Moreover, the Kp at 1 h in data set [2] (brain/plasma, oral gavage 10 mg/kg, mean ± stdev, n = 3) worked out at 1.82 ± 0.33. Moreover, the “fuplasma (% free)” value in data set [3] was 25.3 % free.
Take `Cc1c2c(nn1[C@@H]1CCO[C@H](C)C1)OCCCn1nc(Cl)c3cnc(nc31)N2` (single isomer, unassigned) [Example 19]: the IC50 is 3.9 nM at LRRK2 G2019S and 13 nM on LRRK2 WT. The “CLint” value in data set [1] was <4 mL/min/kg. The “Adduct detected in GSH supplemented HLMs” value in “GSH adduct screening” was “+GSH”. The concentration at 0.5 h in data set [2] (brain, oral gavage 10 mg/kg, time point 0.5 h, mean ± stdev, n = 3, read-out: Total brain concentration) worked out at 1430 ± 134 ng/g; in data set [2] (plasma, oral gavage 10 mg/kg, time point 0.5 h, mean ± stdev, n = 3, read-out: Total plasma concentration), 1140 ± 229 ng/mL. The Kp uu at 0.5 h in data set [2] (brain/plasma, oral gavage 10 mg/kg, time point 0.5 h, fubrain from brain homogenate) amounted to 0.4 ± 0.04. The compound also returned a Kp at 0.5 h in data set [2] (brain/plasma, oral gavage 10 mg/kg, time point 0.5 h, mean ± stdev, n = 3) of 1.28 ± 0.13. Also, the “fuplasma (% free)” value in data set [3] is reported as 24.0 % free.
As for `Cc1c2c(nn1[C@H]1CCCOCC1)OCCCn1nc(Cl)c3cnc(nc31)N2` (single isomer, unassigned) [Example 30, (+)-(R) or (S)-8-Chloro-3-methyl-2-(oxepan-4-yl)-2,4,12,13-tetrahydro-11H-5,7-(azenometheno)dipyrazolo[3,4-b:5′,1′-g][1]oxa[4,6,8]triazacycloundecine], the figures for the half-maximal inhibitory concentration (IC50) at LRRK2 G2019S and at LRRK2 WT were 4 nM and 12 nM, respectively. Moreover, the “CLint” value in data set [1] worked out at 10.5 mL/min/kg. Besides, the concentration at 1 h came to 427 ± 96 ng/g in data set [2] (brain, oral gavage 5 mg/kg, mean ± stdev, n = 3, read-out: Total brain concentration) and 210 ± 50 ng/mL in data set [2] (plasma, oral gavage 5 mg/kg, mean ± stdev, n = 3, read-out: Total plasma concentration). In data set [2] (brain/plasma, oral gavage 5 mg/kg, fubrain from brain homogenate), this compound gave a Kp uu at 1 h of 0.73 ± 0.06. The compound further returned a partition ratio (Kp) at 1 h in data set [2] (brain/plasma, oral gavage 5 mg/kg, mean ± stdev, n = 3) of 2.05 ± 0.18. In data set [3], the “fuplasma (% free)” value was found to be 26.5 % free.
With `Cc1c2c(nn1[C@@H]1CCOC[C@H]1F)OCCCn1nc(Cl)c3cnc(nc31)N2` (single isomer, unassigned) [Example 32, (+)-8-Chloro-2-((3S,4R) or (3R,4S)-3-fluorotetrahydro-2H-pyran-4-yl)-3-methyl-2,4,12,13-tetrahydro-11H-5,7-(azenometheno)dipyrazolo[3,4-b:5′,1′-g][1]oxa[4,6,8]triazacycloundecine], the IC50 on LRRK2 G2019S stood at 6.1 nM; on LRRK2 WT, 15 nM. Further, the “CLint” value in data set [1] was <4 mL/min/kg.
Regarding `[2H]C([2H])([2H])c1c2c(nn1[C@H]1CCO[C@@H](C)C1)OCCCn1nc(Cl)c3cnc(nc31)N2` (single isomer, unassigned) [Example 52, (−)-8-Chloro-3-(methyl-d3)-2-((2R,4R) or (2S,4S)-2-methyltetrahydro-2H-pyranyl)-2,4,12,13-tetrahydro-11H-5,7-(azenometheno)dipyrazolo[3,4-b:5′,1′-g][1]oxa[4,6,8]triazacycloundecine], the figures for the IC50 at LRRK2 G2019S and on LRRK2 WT were 10 nM and 19 nM, respectively. In data set [1], the “CLint” value is <4 mL/min/kg. In the data set “GSH adduct screening”, the “Adduct detected in GSH supplemented HLMs” value is reported as “+GSH”.
For `[2H]C([2H])([2H])c1c2c(nn1[C@H]1CCCOCC1)OCCCn1nc(Cl)c3cnc(nc31)N2` (single isomer, unassigned) [Example 59, (−)-(R) or (S)-8-Chloro-3-(methyl-d3)-2-(oxepan-4-yl)-2,4,12,13-tetrahydro-11H-5,7-(azenometheno)dipyrazolo[3,4-b:5′,1′-g][1]oxa[4,6,8]triazacycloundecine], the concentration for half-maximal inhibition (IC50) at LRRK2 G2019S stood at 6.2 nM; on LRRK2 WT, 17 nM. In addition, the “CLint” value in data set [1] was determined as 6.67 mL/min/kg.
On the same counts, the results for `[2H]C([2H])([2H])c1c2c(nn1[C@@H]1CCCOC1)OCCCn1nc(Cl)c3cnc(nc31)N2` (single isomer, unassigned) [Example 60, (R) or (S)-8-Chloro-3-(methyl-d3)-2-(tetrahydro-2H-pyran-3-yl)-2,4,12,13-tetrahydro-11H-5,7-(azenometheno)dipyrazolo[3,4-b:5′,1′-g][1]oxa[4,6,8]triazacycloundecine] are 9 nM, 25 nM and 8.5 mL/min/kg.
For the compound `[2H]C([2H])([2H])c1c2c(nn1[C@@H]1CCCOC1)OCCCn1nc(Cl)c3cnc(nc31)N2` (single isomer, unassigned) [Example 61, (R) or (S)-8-Chloro-3-(methyl-d3)-2-(tetrahydro-2H-pyran-3-yl)-2,4,12,13-tetrahydro-11H-5,7-(azenometheno)dipyrazolo[3,4-b:5′,1′-g][1]oxa[4,6,8]triazacycloundecine], the figures for the IC50 on LRRK2 G2019S and at LRRK2 WT were 10 nM and 34 nM, respectively. The “CLint” value in data set [1] is <4 mL/min/kg.
